Measured values reported in ChEMBL document CHEMBL1135683, “2002 Alfred Burger Award Address in Medicinal Chemistry. Natural products and design: interrelated approaches in drug discovery” (J Med Chem, 2002).
Where a SMILES comes first, the peptide text is derived from it. The star is where a group is joined. Octanoyl = CCCCCCCC(=O)*

Columns and labels:
[1] = biological target: Growth hormone secretagogue receptor type 1 (Homo sapiens, UniProt Q92847); assay: Ability to displace [125I]ghrelin from cloned human Growth hormone secretagogue receptor type I (GSH1a) expressed in COS-7 cells; type: cell-based
[2] = biological target: T1, Angiotensin-converting enzyme (Homo sapiens, UniProt P12821); assay: Inhibitory activity against Angiotensin I converting enzyme (ACE) in venom of Bothrops jararaca; type: tissue-based
[3] = biological target: T1, Angiotensin-converting enzyme; assay: The compound was evaluated for the (%) inhibition of Angiotensin I converting enzyme in venom of Bothrops jararaca at the dose of 10e-4 M; type: tissue-based
[4] = biological target: T1, Angiotensin-converting enzyme; assay: Inhibition of Angiotensin I converting enzyme (ACE) in Bothrops jararaca venom
[5] = biological target: Somatostatin receptor type 4 (Homo sapiens, UniProt P31391); assay: Binding affinity towards Somatostatin receptor type 4 (hsst4)
[6] = biological target: Somatostatin receptor type 5 (Homo sapiens, UniProt P35346); assay: Binding affinity towards Somatostatin receptor type 5 (hsst5)
[7] = biological target: Somatostatin receptor type 1 (Homo sapiens, UniProt P30872); assay: Binding affinity towards Somatostatin receptor type 1 (hsst1)
[8] = biological target: Somatostatin receptor type 3 (Homo sapiens, UniProt P32745); assay: Binding affinity towards Somatostatin receptor type 3 (hsst3)
[9] = The compound was evaluated for the inhibition of Glycolate oxidase

T1 sequence (P12821 whole entry): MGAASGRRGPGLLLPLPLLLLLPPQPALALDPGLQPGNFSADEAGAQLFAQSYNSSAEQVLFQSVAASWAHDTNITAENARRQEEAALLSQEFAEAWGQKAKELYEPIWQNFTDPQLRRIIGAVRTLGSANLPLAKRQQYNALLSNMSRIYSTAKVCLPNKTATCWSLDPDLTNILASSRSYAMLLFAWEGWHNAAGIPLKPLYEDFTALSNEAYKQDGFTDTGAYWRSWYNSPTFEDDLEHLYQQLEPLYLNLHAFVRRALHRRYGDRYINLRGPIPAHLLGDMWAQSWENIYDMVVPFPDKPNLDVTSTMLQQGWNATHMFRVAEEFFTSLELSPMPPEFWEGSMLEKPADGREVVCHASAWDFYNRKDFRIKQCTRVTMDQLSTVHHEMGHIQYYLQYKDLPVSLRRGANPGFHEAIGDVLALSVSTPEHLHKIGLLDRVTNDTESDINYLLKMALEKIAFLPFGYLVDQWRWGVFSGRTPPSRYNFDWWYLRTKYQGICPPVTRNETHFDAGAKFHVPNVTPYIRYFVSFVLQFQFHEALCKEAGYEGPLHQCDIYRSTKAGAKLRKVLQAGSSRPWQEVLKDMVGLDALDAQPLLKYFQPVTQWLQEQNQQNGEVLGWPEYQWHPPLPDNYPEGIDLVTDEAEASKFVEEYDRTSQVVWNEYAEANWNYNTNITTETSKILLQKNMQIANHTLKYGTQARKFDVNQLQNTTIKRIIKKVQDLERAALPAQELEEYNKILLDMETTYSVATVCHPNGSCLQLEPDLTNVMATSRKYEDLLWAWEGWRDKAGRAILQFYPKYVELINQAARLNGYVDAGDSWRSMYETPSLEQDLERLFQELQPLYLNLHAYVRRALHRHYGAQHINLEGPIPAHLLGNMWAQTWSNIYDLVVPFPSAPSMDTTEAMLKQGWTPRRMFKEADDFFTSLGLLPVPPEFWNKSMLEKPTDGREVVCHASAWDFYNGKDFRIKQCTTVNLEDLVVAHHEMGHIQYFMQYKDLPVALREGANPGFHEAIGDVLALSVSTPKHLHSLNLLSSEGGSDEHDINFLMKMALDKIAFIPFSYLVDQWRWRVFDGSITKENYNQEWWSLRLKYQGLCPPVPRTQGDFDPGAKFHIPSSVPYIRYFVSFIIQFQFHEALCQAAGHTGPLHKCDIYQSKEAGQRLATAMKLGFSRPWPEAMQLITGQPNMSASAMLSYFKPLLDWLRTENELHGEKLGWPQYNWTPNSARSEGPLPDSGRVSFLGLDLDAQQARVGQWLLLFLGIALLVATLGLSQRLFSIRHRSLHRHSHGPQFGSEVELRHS
Sequence of Somatostatin receptor type 1 (P30872 whole entry): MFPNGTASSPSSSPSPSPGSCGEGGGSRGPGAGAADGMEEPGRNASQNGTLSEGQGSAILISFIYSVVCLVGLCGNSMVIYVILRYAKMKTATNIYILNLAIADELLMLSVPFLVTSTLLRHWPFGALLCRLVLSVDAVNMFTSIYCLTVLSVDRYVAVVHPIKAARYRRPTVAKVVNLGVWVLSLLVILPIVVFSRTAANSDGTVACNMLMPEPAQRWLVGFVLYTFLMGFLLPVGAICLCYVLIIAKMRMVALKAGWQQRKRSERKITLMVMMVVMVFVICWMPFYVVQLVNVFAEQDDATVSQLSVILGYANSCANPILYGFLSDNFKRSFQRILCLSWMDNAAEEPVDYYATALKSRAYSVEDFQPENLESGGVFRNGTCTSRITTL
Sequence of Somatostatin receptor type 5 (P35346 whole entry): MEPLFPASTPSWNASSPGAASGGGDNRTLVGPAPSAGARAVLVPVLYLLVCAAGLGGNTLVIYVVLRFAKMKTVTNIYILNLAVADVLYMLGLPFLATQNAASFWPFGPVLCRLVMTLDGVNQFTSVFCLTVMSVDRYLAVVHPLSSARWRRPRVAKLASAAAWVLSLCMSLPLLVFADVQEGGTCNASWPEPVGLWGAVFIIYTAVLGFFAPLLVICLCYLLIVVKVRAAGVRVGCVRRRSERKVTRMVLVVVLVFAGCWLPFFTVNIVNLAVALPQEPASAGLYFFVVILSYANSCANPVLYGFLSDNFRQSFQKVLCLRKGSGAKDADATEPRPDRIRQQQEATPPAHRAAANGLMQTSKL
Sequence of Somatostatin receptor type 4 (P31391 whole entry): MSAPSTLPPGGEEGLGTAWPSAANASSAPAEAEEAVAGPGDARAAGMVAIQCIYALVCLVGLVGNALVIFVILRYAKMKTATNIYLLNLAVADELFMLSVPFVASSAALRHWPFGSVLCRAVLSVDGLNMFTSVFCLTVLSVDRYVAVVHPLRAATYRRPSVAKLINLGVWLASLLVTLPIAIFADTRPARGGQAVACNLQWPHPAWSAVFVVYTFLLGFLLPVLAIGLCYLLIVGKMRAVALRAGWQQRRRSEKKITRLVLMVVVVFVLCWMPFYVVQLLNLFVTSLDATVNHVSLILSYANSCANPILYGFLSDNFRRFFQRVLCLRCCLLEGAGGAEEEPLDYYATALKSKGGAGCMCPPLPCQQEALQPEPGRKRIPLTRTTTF
Sequence of Growth hormone secretagogue receptor type 1 (Q92847 whole entry): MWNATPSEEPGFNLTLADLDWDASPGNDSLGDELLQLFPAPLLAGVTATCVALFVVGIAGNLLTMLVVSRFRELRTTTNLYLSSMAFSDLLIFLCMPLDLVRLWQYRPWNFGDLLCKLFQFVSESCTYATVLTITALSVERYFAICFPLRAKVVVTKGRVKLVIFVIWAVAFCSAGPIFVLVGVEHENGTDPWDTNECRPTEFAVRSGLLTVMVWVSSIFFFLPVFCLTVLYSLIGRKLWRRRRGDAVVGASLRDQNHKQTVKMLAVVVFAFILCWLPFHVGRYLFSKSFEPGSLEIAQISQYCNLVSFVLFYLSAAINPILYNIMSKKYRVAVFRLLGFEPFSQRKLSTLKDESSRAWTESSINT
Sequence of Somatostatin receptor type 3 (P32745 whole entry): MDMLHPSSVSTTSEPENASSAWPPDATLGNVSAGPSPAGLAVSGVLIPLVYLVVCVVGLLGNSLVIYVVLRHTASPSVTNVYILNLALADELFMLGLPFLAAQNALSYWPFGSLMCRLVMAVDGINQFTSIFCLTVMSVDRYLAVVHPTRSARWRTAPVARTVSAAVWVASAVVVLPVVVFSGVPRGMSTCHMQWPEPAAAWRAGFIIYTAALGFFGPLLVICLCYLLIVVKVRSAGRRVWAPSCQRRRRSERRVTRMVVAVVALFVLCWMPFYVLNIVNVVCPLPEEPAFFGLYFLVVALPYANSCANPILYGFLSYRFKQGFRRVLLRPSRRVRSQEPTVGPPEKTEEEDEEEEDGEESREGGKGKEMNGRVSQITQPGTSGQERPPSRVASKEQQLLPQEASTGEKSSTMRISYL

`CCCCCCCC(=O)OC[C@H](NC(=O)[C@H](CO)NC(=O)CN)C(=O)N[C@@H](Cc1ccccc1)C(=O)N[C@@H](CC(C)C)C(=O)N[C@@H](CO)C(=O)N1CCC[C@H]1C(=O)N[C@@H](CCC(=O)O)C(=O)N[C@@H](Cc1c[nH]cn1)C(=O)N[C@@H](CCC(N)=O)C(=O)N[C@@H](CCCN=C(N)N)C(=O)N[C@H](C(=O)N[C@@H](CCC(N)=O)C(=O)N[C@@H](CCC(N)=O)C(=O)N[C@@H](CCCN=C(N)N)C(=O)N[C@@H](CCCCN)C(=O)N[C@@H](CCC(=O)O)C(=O)N[C@@H](CO)C(=O)N[C@@H](CCCCN)C(=O)N[C@@H](CCCCN)C(=O)N1CCC[C@H]1C(=O)N1CCC[C@H]1C(=O)N1CCC[C@H]1C(=O)N[C@@H](C)C(=O)N[C@@H](CCCCN)C(=O)N[C@@H](CC(C)C)C(=O)N[C@@H](CCC(N)=O)C(=O)N1CCC[C@H]1C(=O)N[C@@H](CCCN=C(N)N)C(=O)O)C(C)C` (H-GSS(Octanoyl)FLSPEHQRVQQRKESKKPPPAKLQPR-OH) gave an IC50 [1] of 0.71 nM.

Compound `O=CC(Cc1ccccc1)NC(CCc1ccccc1)C(=O)O` (stereo unspecified) has a Ki [2] of 50000 nM.

In the case of `O=C(O)CCC(=O)N1CCC[C@H]1C(=O)O`, the inhibition [3] is reported as 43%.

`O=C(O)CCCC(=O)N1CCC[C@H]1C(=O)O` showed an IC50 [4] of 70000 nM.

In the case of `C[C@@H](c1c[nH]c2ccccc12)[C@@H](NC(=O)N1CCC(n2c(=O)[nH]c3ccccc32)CC1)C(=O)N[C@@H](CCCCN)C(=O)OC(C)(C)C`, the Ki [5] is reported as 81 nM, the Ki [6] is reported as 163 nM and the Ki [7] is reported as 2390 nM. The Ki [8] was 31 nM.

With H-EKWAP-OH the IC50 [4] was 60 nM.

`CC(CCC(=O)N1CCC[C@H]1C(=O)O)C(=O)O` (stereo partly specified) showed an IC50 [4] of 260000 nM.

In the case of `O=C(O)/C(O)=C\C(=O)c1ccc(-c2ccc(Br)cc2)cc1`, the IC50 [9] is reported as 60 nM.
